Measurements from patent US9908879B2, “P2X3 and/or P2X2/3 compounds and methods” (Asana Biosciences, LLC, priority 2013, dated 2018).

Legend:
P2X2/3 = biological target: T1, P2X2/3 (UniProt P56373+Q9UBL9); test: FLIPR intracellular calcium assay, P2X2/3; type: cell-based, human or rat; details: agonist at EC75, species of receptor not given
T1 construct: hP2X2/3 (Cat #6179)
T1 sequence (P56373 1-397): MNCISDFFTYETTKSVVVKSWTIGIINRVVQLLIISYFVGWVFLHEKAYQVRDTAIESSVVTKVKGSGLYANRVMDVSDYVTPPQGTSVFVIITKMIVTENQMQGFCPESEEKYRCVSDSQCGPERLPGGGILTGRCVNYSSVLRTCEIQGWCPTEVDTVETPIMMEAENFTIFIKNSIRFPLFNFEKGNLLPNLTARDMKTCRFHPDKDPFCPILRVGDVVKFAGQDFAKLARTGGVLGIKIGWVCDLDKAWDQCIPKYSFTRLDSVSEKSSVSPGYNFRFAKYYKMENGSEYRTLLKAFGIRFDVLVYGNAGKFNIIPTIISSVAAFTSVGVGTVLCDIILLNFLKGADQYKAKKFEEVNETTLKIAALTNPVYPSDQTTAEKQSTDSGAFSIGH
T1 sequence (Q9UBL9 1-471): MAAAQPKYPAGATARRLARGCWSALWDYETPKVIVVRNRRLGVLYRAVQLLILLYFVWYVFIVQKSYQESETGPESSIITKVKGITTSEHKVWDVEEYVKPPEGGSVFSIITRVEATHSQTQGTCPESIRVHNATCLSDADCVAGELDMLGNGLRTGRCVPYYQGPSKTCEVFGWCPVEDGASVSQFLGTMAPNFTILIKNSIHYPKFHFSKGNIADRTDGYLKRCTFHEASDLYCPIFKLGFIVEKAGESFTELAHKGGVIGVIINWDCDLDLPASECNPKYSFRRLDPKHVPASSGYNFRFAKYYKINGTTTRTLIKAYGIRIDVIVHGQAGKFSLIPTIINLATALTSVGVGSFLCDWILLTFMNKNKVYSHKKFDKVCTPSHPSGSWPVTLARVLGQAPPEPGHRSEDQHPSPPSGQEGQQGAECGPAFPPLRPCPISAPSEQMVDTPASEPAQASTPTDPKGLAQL
Excerpt: (§1) The FLIPR® assay utilizes cells which express human or rat P2X3 or P2X2/3 receptors. Recombinant cells expressing hP2X3 (Cat #6188) and hP2X2/3 (Cat #6179) were procured from Chantest Corp. Rat P2X2 (NCBI Accession No: U14414) was amplified by PCR from PC12 cDNA (a rat adrenal medulla cell line). The PCR product obtained containing the protein coding sequence of rat P2X2 was cloned into EcoRV-digested and dephosphorylated vector pIRES-puro3 within the multiple cloning site (MCS). See, FIG. 1A.
(§2) Cryo-vial containing 6×10^6 cells (human P2X3-HEK/human P2X2/3-TRex293/rat P2X2/3-TRex293/rat P2X3 TRex-CHO) was thawed in a 37° C. water bath. Cells were suspended in 20 mL of respective cell plating media (See annexure for composition) in a 50 mL centrifuge tube. The cell viability was checked with the help of Trypan Blue dye. Upon washing, cells were plated in a black 384-well clear bottomed, sterile poly-D-lysine coated plate such that, each well contained 10,000 cells (15,000/well for hP2X3) in 30 μL cell plating media. The plate was incubated in a 5% CO2 incubator at 37° C. for 24 h.
(§3) The next day, prior to the assay, the cell plating media was removed from each well by decanting and gentle tapping. Thirty μL of FLIPR Calcium 4 dye solution was added to each well. The plate was incubated at 37° C. for 45 min (60 min for hP2X3). The plate was next equilibrated at room temperature for 15 minutes before placing it in a 384 well FLIPR for the assay.
(§4) Compounds were dissolved in DMSO and serially diluted following 11 point half log (3.16 fold) dilution with a starting concentration of 2 mM. Dilutions were mixed with assay buffer just before performing the assay.
(§5) Compounds were added to the respective wells of the assay-ready cell plate with the help of the FLIPR and fluorescence readings were captured for 5 min to observe any possible agonistic property of the compounds. The plate was then incubated at room temperature for 15 min. The cells were stimulated with respective agonist EC75 concentration and the fluorescence readings were captured for another 5 min by FLIPR. The difference in fluorescence readings in presence of the compounds were compared with that of the control wells (wells having no compound) to calculate the inhibitory potency of the compounds. The IC50 values of the compounds were determined using the Graph pad Prism software.

P2X3 = biological target: T2, P2X3 (UniProt P56373); test: FLIPR intracellular calcium assay, P2X3; type: cell-based, human or rat; details: agonist at EC75, species of receptor not given
T2 sequence (P56373 1-397): T1 sequence (P56373 1-397)
Excerpt: as §1, §2, §3, §4, §5

[1] = system: formalin-induced hind limb flinches; test: Formalin induced pain (Automated Nociception Analyzer test); type: in vivo; details: rat, oral gavage 100 mg/kg, 30 min before footpad formalin injection
Method: Male Sprague Dawley rats of young adult age group and body weight range of 200-250 g were included in the study. Animals were housed under a 12 h light/dark cycle with food and water ad libitum. Animals were acclimatized in the observation chambers of Automated Nociception Analyzer (ANA) for 45-60 min, twice daily for two days prior to the study day. On the day of the study, metal bands were glued to the plantar surface of the right hind paw of each animal enrolled in the study set and kept in plastic observation chambers for 10-15 min. Formalin injection was done in the animals after 0.5 or 1 h of oral treatment with test compound or vehicle (20% polyethylene glycol, 1% TweenTM 80 reagent, 79% water). Formalin injection of the animals was done with 50 μL of 2.5% formalin (freshly prepared from formaldehyde solution, Sigma, USA, Cat # F8775) injected subcutaneously in to the dorsum of right hind paw. Animals were placed back to their respective recording chambers of ANA immediately after injection. […] count data for each animal was recorded from 1 to 60 min post formalin injection, using ANA motion analysis software. The study was analyzed in 2 phases, the early phase extended from 0-10 min and second phase extended from 11-60 min post formalin injection. The data was collected in 5 min time bins and the counts of each bin were added up for total count of the phase. […]

[2] = system: acetic acid induced writhing (visceral pain); test: Acetic acid induced writhing test; type: in vivo; details: mouse, oral gavage 20, 40 and 60 mg/kg, 30 min before i.p. acetic acid, counted 15 min
Method: Swiss albino mice of 30-40 g were included in the study. The mice were given an intraperitoneal injection of 0.7% v/v acetic acid solution at an injection volume of 10 mL/kg, 30 min after oral administration of vehicle or test article control. Test articles were administered, typically, at doses between 20 and 60 mg/kg. The mice were placed individually into glass chambers. The number of writhes produced in these animals was counted for 15 min following acetic acid administration. For scoring purposes writhing was indicated by stretching of the abdomen with simultaneous stretching of at least one hind limb. See, e.g., FIG. 4. Statistical analysis was done with One way ANOVA followed by Dunnett's multiple comparison tests. Comparison was done between treatment groups and vehicle with respect to total number of writhes and p<0.05 was considered statistically significant. Each group comprised of 6 animals.

CCCCc1cnc2c(N3CCC(C)CC3)cc(C(=O)N[C@@H](C)c3nnc[nH]3)cn12 [Example 9, (S)—N-(1-(4H-1,2,4-Triazol-3-yl)ethyl)-3-butyl-8-(4-methylpiperidin-1-yl)imidazo[1,2-a]pyridine-6-carboxamide]
IC50 (P2X2/3): 1000 to 10000 nM | IC50 (P2X3): 1000 to 10000 nM

CCc1cnnn1-c1cc(C(=O)NCc2ccc(C)nc2)cn2c(-c3ccc(C)s3)cnc12 [Example 22]
second phase flinching response to formalin [1]: attenuated | pain responses (writhes) after acetic acid [2]: clear dose-related reduction

Cc1ccc(-c2cnc3c(Nc4ccccc4)cc(C(=O)NCc4ccc(C)[n+]([O-])c4)cn23)s1 [Example 89]
IC50 (P2X2/3): 100 to 1000 nM | IC50 (P2X3): 1 to 100 nM

CCCSc1cnc2c(N3CCC(C)CC3)cc(C(=O)NCc3ccc(C)[n+]([O-])c3)cn12 [Example 114]
IC50 (P2X3): 1 to 100 nM

Cc1ccc(-c2cnc3c(N4CCC(C)CC4)cc(C(=O)NCc4ccc(C)[n+]([O-])c4)cn23)s1 [Example 117]
IC50 (P2X2/3): 1 to 100 nM | IC50 (P2X3): 1 to 100 nM

Cc1ccc(CNC(=O)c2cc(N3CCC(C)CC3)c3ncc(-c4ccc(Cl)s4)n3c2)c[n+]1[O-] [Example 119]
IC50 (P2X2/3): 100 to 1000 nM | IC50 (P2X3): 1 to 100 nM

Cc1ccc(-c2cnc3c(NC4CCCCC4)cc(C(=O)NCc4ccc(C)[n+]([O-])c4)cn23)s1 [Example 120]
IC50 (P2X2/3): 1 to 100 nM | IC50 (P2X3): 1 to 100 nM

Cc1ccc(-c2cnc3c(N4CCC(C)(C)CC4)cc(C(=O)NCc4ccc(C)[n+]([O-])c4)cn23)s1 [Example 122]
IC50 (P2X2/3): 1 to 100 nM | IC50 (P2X3): 1 to 100 nM

Cc1ccc(-c2cnc3c(N4CCC(F)(F)CC4)cc(C(=O)NCc4ccc(C)[n+]([O-])c4)cn23)s1 [Example 123]
IC50 (P2X2/3): 1 to 100 nM | IC50 (P2X3): > 10000 nM

Cc1ccc(-c2cnc3c(NC4CCCCC4)cc(C(=O)NCc4ccc(C(F)(F)F)[n+]([O-])c4)cn23)s1 [Example 124]
IC50 (P2X2/3): 100 to 1000 nM | IC50 (P2X3): 100 to 1000 nM

Cc1cnc(-c2cnc3c(N4CCC(C)CC4)cc(C(=O)NCc4ccc(C)[n+]([O-])c4)cn23)s1 [Example 125]
IC50 (P2X2/3): 100 to 1000 nM | IC50 (P2X3): 100 to 1000 nM

Cc1ccc(-c2cnc3c(N(C)C4CCCCC4)cc(C(=O)NCc4ccc(C)[n+]([O-])c4)cn23)s1 [Example 126]
IC50 (P2X2/3): 1 to 100 nM | IC50 (P2X3): > 10000 nM

Cc1ccc(-c2cnc3c(N4CCC(F)CC4)cc(C(=O)NCc4ccc(C)[n+]([O-])c4)cn23)s1 [Example 127]
IC50 (P2X2/3): 1 to 100 nM | IC50 (P2X3): > 10000 nM

Cc1ccc(-c2cnc3c(N4CCC(C(F)(F)F)CC4)cc(C(=O)NCc4ccc(C)[n+]([O-])c4)cn23)s1 [Example 131]
IC50 (P2X2/3): 100 to 1000 nM | IC50 (P2X3): 1 to 100 nM

Cc1ccc(-c2cnc3c(N4CCC(CF)CC4)cc(C(=O)NCc4ccc(C)[n+]([O-])c4)cn23)s1 [Example 132]
IC50 (P2X2/3): 1 to 100 nM | IC50 (P2X3): 1 to 100 nM

Cc1ccc(-c2cnc3c(N4CCC(F)(F)CC4)cc(C(=O)N[C@@H](C)C4=NN=CC4)cn23)s1 [Example 143]
IC50 (P2X2/3): 100 to 1000 nM | IC50 (P2X3): 1000 to 10000 nM

Cc1ccc(-c2cnc3c(N4CCC(C)CC4)cc(C(=O)NCc4ccc[n+]([O-])c4)cn23)s1 [Example 147]
IC50 (P2X2/3): 100 to 1000 nM | IC50 (P2X3): 1000 to 10000 nM

COc1ccc(CNC(=O)c2cc(-n3nnnc3C3CCC3)c3ncc(-c4ccc(C)s4)n3c2)cn1 [Example 163]
IC50 (P2X2/3): 1 to 100 nM | IC50 (P2X3): > 10000 nM

Cc1ccc(-c2cnc3c(-n4nnnc4C4CCC4)cc(C(=O)N[C@@H](C)c4nnc[nH]4)cn23)s1 [Example 165]
IC50 (P2X2/3): 1 to 100 nM | IC50 (P2X3): 1 to 100 nM

Cc1ccc(-c2cnc3c(-n4nnnc4C4CC4)cc(C(=O)N[C@@H](C)c4nnc[nH]4)cn23)s1 [Example 167]
IC50 (P2X2/3): 100 to 1000 nM | IC50 (P2X3): 1 to 100 nM
